Source: patent publication US12054461B2, “Sulfonylurea derivatives and uses thereof” (NodThera Limited, priority 2019, dated 2024)

Key:
[1] = system: IL-1β release upon NLRP3 activation in peripheral blood mononuclear cells (PBMC); assay: PBMC IC50 determination assay; format: cell-based; settings: sodium salts tested, LPS 1 μg/ml 3 h, compound 30 min, ATP 5 mM 1 h, IL-1β by HTRF
Protocol: The compounds of the present disclosure were tested for their inhibitory activity against IL-1β release upon NLRP3 activation in peripheral blood mononuclear cells (PBMC).
PBMC were isolated from buffy coats by density gradient centrifugation on Histopaque-1077 (Sigma, cat no. 10771). Isolated cells were seeded into the wells (280,000 cells/well) of a 96-well plate and incubated for 3 h with lipopolysaccharide (LPS, 1 μg/ml diluted 1000× from a 1 mg/ml stock solution). The compounds of the present disclosure were added (a single compound per well) and the cells were incubated for 30 min. Next, the cells were stimulated with ATP (5 mM final concentration diluted 20× from a 100 mM stock solution) for 1 h and the cell culture media from the wells were collected for further analysis.
(§1) The release of IL-1β into the media was determined by quantitative detection of IL-1β in the media using HTRF®, CisBio cat. No. 62HIL1BPEH. Briefly, cell culture supernatant were dispensed directly into the assay plate containing antibodies labelled with the HTRF® donor and acceptor. A microplate spectrophotometer (BMG) was used to detect signals at 655 nm and 620 nm. The detection range of IL-1β HTRF® was 39-6500 pg/ml.

[2] = system: IL-1β release upon NLRP3 activation in human whole blood; assay: Whole blood (WB) assay; format: cell-based; settings: sodium salts tested, LPS 1 μg/ml 3 h, compound 30 min, ATP 5 mM 1 h, IL-1β by HTRF
Protocol: The compounds of the present disclosure were tested for their inhibitory activity against IL-1β release upon NLRP3 activation in human whole blood.
Whole blood was drawn from single healthy donors and treated with sodium heparin anticoagulant. Blood was diluted with cell culture media at a 9:5 ratio, seeded in a 96-well plate and incubated for 3 h with lipopolysaccharide (LPS, 1 μg/ml final concentration diluted 1000× from a 1 mg/ml stock solution). The compounds of the present disclosure were added (a single compound concentration per well) and the blood was incubated for 30 min. Next, the blood was stimulated with ATP (5 mM final concentration diluted 20× from a 100 mM stock solution) for 1 h and the cell culture media from the wells were collected for further analysis.
as §1, with “were diluted as appropriate to bring IL-1β levels within the HTRF® detection range (36-6500 pg/ml) and subsequently” for “were”, “dispensed” for “dispensed directly”, “nm.” for “nm. The detection range of IL-1β HTRF® was 39-6500 pg/ml.”

Compound | IC50 [2] [nM] | IC50 [1] [nM]
Cn1cc(N(CCC(C)(C)O)S(=O)(=O)NC(=O)Nc2c3c(cc4c2CCC4)CCC3)cn1 [Compound 4, 1-(1,2,3,5,6,7-Hexahydro-s-indacen-4-yl)-3-[(3-hydroxy-3-methylbutyl)(1-methyl-1H-pyrazol-4-yl)sulfamoyl]urea] | 1000 to 3000 | < 100
CN(C)C1CCC(N(c2cnn(C)c2)S(=O)(=O)NC(=O)Nc2c3c(cc4c2CCC4)CCC3)C1 (stereo not shown) [Compound 5, 1-{[3-(Dimethylamino)cyclopentyl](1-methyl-1H-pyrazol-4-yl)sulfamoyl}-3-(1,2,3,5,6,7-hexahydro-s-indacen-4-yl)urea] | 3000 to 10000 | 100 to 500
CN(C)C1CC(N(c2cnn(C)c2)S(=O)(=O)NC(=O)Nc2c3c(cc4c2CCC4)CCC3)C1 (stereo not shown) [Compound 6, 3-{[3-(Dimethylamino)cyclobutyl](1-methyl-1H-pyrazol-4-yl)sulfamoyl}-1-(1,2,3,5,6,7-hexahydro-s-indacen-4-yl)urea] | 1000 to 3000 | < 100
COCCCN(c1cnn(C)c1)S(=O)(=O)NC(=O)Nc1c2c(cc3c1CCC3)CCC2 [Compound 7, 1-(1,2,3,5,6,7-Hexahydro-s-indacen-4-yl)-3-[(3-methoxypropyl)(1-methyl-1H-pyrazol-4-yl)sulfamoyl]urea] | 3000 to 10000 | 100 to 500
CN(C)CCCN(c1cnn(C)c1)S(=O)(=O)NC(=O)Nc1c2c(cc3c1CCC3)CCC2 [Compound 10, 3-{[3-(Dimethylamino)propyl](1-methyl-1H-pyrazol-4-yl)sulfamoyl}-1-(1,2,3,5,6,7-hexahydro-s-indacen-4-yl)urea] | 10000 to 20000 | 100 to 500
CN(CCN(c1cnn(C)c1)S(=O)(=O)NC(=O)Nc1c2c(cc3c1CCC3)CCC2)C1COC1 [Compound 11, 1-(1,2,3,5,6,7-Hexahydro-s-indacen-4-yl)-3-({2-[methyl(oxetan-3-yl)amino]-ethyl}(1-methyl-1H-pyrazol-4-yl)sulfamoyl)urea] | 1000 to 3000 | < 100

The next lines start with results.

IC50 [2] [nM] | Compound | IC50 [1] [nM]
1000 to 3000 | COCCN(c1cnn(C)c1)S(=O)(=O)NC(=O)Nc1c2c(cc3c1CCC3)CCC2 [Compound 1, 1-(1,2,3,5,6,7-Hexahydro-s-indacen-4-yl)-3-[(2-methoxyethyl)(1-methyl-1H-pyrazol-4-yl)sulfamoyl]urea] | < 100
1000 to 3000 | COCC(COC)N(c1cnn(C)c1)S(=O)(=O)NC(=O)Nc1c2c(cc3c1CCC3)CCC2 [Compound 2, 3-[(1,3-Dimethoxypropan-2-yl)(1-methyl-1H-pyrazol-4-yl)sulfamoyl]-1-(1,2,3,5,6,7-hexahydro-s-indacen-4-yl)urea] | 100 to 500
1000 to 3000 | Cn1cc(N(CC(C)(C)O)S(=O)(=O)NC(=O)Nc2c3c(cc4c2CCC4)CCC3)cn1 [Compound 3, 1-(1,2,3,5,6,7-Hexahydro-s-indacen-4-yl)-3-[(2-hydroxy-2-methylpropyl)(1-methyl-1H-pyrazol-4-yl)sulfamoyl]urea] | 100 to 500
< 1000 | CN(C)CCN(c1cnn(C)c1)S(=O)(=O)NC(=O)Nc1c2c(cc3c1CCC3)CCC2 [Compound 8, 3-{[2-(Dimethylamino)ethyl](1-methyl-1H-pyrazol-4-yl)sulfamoyl}-1-(1,2,3,5,6,7-hexahydro-s-indacen-4-yl)urea] | < 100
< 1000 | CC(C)n1cc(N(CCN(C)C)S(=O)(=O)NC(=O)Nc2c3c(cc4c2CCC4)CCC3)cn1 [Compound 9, 1-{[2-(Dimethylamino)ethyl][1-(propan-2-yl)-1H-pyrazol-4-yl]sulfamoyl}-3-(1,2,3,5,6,7-hexahydro-s-indacen-4-yl)urea] | < 100
